Assay results from Sander's compilation of Henry's law constants (doi:10.1016/0045-6535(88)90028-8).

Test: Henry solubility constant Hcp at 298.15 K (mol/(m3 Pa))
Conditions: reference: Dunnivant and Elzerman (1988)
With Clc1cccc(-c2cccc(Cl)c2Cl)c1Cl [2,2',3,3'-tetrachlorobiphenyl] the “Henry solubility constant Hcp” value was 0.049.
For Clc1cc(Cl)c(-c2cc(Cl)c(Cl)cc2Cl)cc1Cl [2,2',4,4',5,5'-hexachlorobiphenyl], the “Henry solubility constant Hcp” value was 0.075.
For Clc1cc(Cl)c(-c2c(Cl)cc(Cl)cc2Cl)c(Cl)c1 [2,2',4,4',6,6'-hexachlorobiphenyl], the “Henry solubility constant Hcp” value was 0.013.
For Clc1ccc(Cl)c(-c2cc(Cl)c(Cl)cc2Cl)c1 [2,2',4,5,5'-pentachlorobiphenyl], the “Henry solubility constant Hcp” value was 0.039.
With Clc1ccc(Cl)c(-c2cc(Cl)ccc2Cl)c1 [2,2',5,5'-tetrachlorobiphenyl] the “Henry solubility constant Hcp” value was 0.029.
For Clc1ccc(Cl)c(-c2ccccc2Cl)c1 [2,2',5-trichlorobiphenyl], the “Henry solubility constant Hcp” value was 0.026.
In the case of Clc1cccc(Cl)c1-c1c(Cl)cccc1Cl [2,2',6,6'-tetrachlorobiphenyl], the “Henry solubility constant Hcp” value was 0.018.
For Clc1ccccc1-c1ccccc1Cl [2,2'-dichlorobiphenyl], the “Henry solubility constant Hcp” value was 0.029.
In the case of Clc1cccc(-c2cc(Cl)ccc2Cl)c1 [2,3',5-trichlorobiphenyl], the “Henry solubility constant Hcp” value was 0.03.
In the case of Clc1cc(Cl)c(-c2ccccc2)c(Cl)c1 [2,4,6-trichlorobiphenyl], the “Henry solubility constant Hcp” value was 0.015.
With Clc1ccc(-c2ccccc2)c(Cl)c1 [2,4-dichlorobiphenyl] the “Henry solubility constant Hcp” value was 0.028.
For Clc1ccc(Cl)c(-c2ccccc2)c1 [2,5-dichlorobiphenyl], the “Henry solubility constant Hcp” value was 0.025.
With Clc1ccc(-c2ccc(Cl)c(Cl)c2)cc1Cl [3,3',4,4'-tetrachlorobiphenyl] the “Henry solubility constant Hcp” value was 0.1.
For Clc1cccc(-c2cccc(Cl)c2)c1 [3,3'-dichlorobiphenyl], the “Henry solubility constant Hcp” value was 0.042.
For Clc1ccc(-c2ccccc2)cc1Cl [3,4-dichlorobiphenyl], the “Henry solubility constant Hcp” value was 0.048.
In the case of Clc1ccc(-c2ccc(Cl)cc2)cc1 [4,4'-dichlorobiphenyl], the “Henry solubility constant Hcp” value was 0.05.
